molecular target: LSD-1 enzyme (Homo sapiens (Human), UniProt O60341); experiment: LANCE LSD1/KDM1A demethylase assay (LSD1 histone demethylase biochemical assay); settings: 1 nM LSD-1 enzyme, 1 hour preincubation at 25° C., Biotin-labeled Histone H3 peptide substrate
Description: Example A: LSD1 Histone Demethylase Biochemical Assay
LANCE LSD1/KDM1A demethylase assay—10 μL of 1 nM LSD-1 enzyme (ENZO BML-SE544-0050) in the assay buffer (50 mM Tris, pH 7.5, 0.01% Tween-20, 25 mM NaCl, 5 mM DTT) were preincubated for 1 hour at 25° C. with 0.8 μL compound/DMSO dotted in black 384 well polystyrene plates. […] Reactions were stopped by addition of 10 μL 1×LANCE Detection Buffer (PerkinElmer CR97-100) supplemented with 1.5 nM Eu-anti-unmodified H3K4 Antibody (PerkinElmer TRF0404), and 225 nM LANCE Ultra Streptavidin (PerkinElmer TRF102) along with 0.9 mM Tranylcypromine-HCl (Millipore 616431). After stopping the reactions plates were incubated for 30 minutes and read on a PHERAstar FS plate reader (BMG Labtech).

Row | Structure (SMILES) | IC50 [nM]
1 | COc1ncc(-c2c(-c3ccc(C#N)cc3)nc(OC[C@@H]3CCCN(CCO)C3)n3ccnc23)cc1F [Example 57, 4-(8-(5-fluoro-6-methoxypyridin-3-yl)-5-{[(3R)-1-(2-hydroxyethyl)piperidin-3-yl]methoxy}imidazo[1,2-c]pyrimidin-7-yl)benzonitrile] | ≤ 50
2 | CN(C)C1CCN(c2nc(-c3ccc(C#N)cc3)c(-c3cc(F)c4c(c3)oc(=O)n4C)c3nccn23)CC1 [Example 58, 4-[5-[4-(dimethylamino)piperidin-1-yl]-8-(4-fluoro-3-methyl-2-oxo-2,3-dihydro-1,3-benzoxazol-6-yl)imidazo[1,2-c]pyrimidin-7-yl]benzonitrile] | ≤ 50
3 | CN1CCC[C@@H](COc2nc(-c3ccc(C#N)cc3)c(-c3cc(F)c4c(c3)oc(=O)n4C)c3nccn23)C1 [Example 59, 4-(8-(4-fluoro-3-methyl-2-oxo-2,3-dihydro-1,3-benzoxazol-6-yl)-5-{[(3R)-1-methylpiperidin-3-yl]methoxy}imidazo[1,2-c]pyrimidin-7-yl)benzonitrile] | ≤ 50
4 | CN(C)C1CCN(c2nc(-c3ccc(C#N)cc3)c(-c3cnc4c(c3)oc(=O)n4C)c3nccn23)CC1 [Example 60, 4-[5-[4-(dimethylamino)piperidin-1-yl]-8-(3-methyl-2-oxo-2,3-dihydro[1,3]oxazolo[4,5-b]pyridin-6-yl)imidazo[1,2-c]pyrimidin-7-yl]benzonitrile] | ≤ 50
5 | CN1CCC[C@@H](COc2nc(-c3ccc(C#N)cc3)c(-c3cnc4c(c3)oc(=O)n4C)c3nccn23)C1 [Example 61, 4-(8-(3-methyl-2-oxo-2,3-dihydro[1,3]oxazolo[4,5-b]pyridin-6-yl)-5-{[(3R)-1-methylpiperidin-3-yl]methoxy}imidazo[1,2-c]pyrimidin-7-yl)benzonitrile] | 50 to 500
6 | CN1C(=O)Cc2cc(-c3c(-c4ccc(C#N)cc4)nc(N4CCC(N(C)C)CC4)n4ccnc34)ccc21 [Example 62, 4-[5-[4-(dimethylamino)piperidin-1-yl]-8-(1-methyl-2-oxo-2,3-dihydro-1H-indol-5-yl)imidazo[1,2-c]pyrimidin-7-yl]benzonitrile] | ≤ 50
7 | Cc1nc2cc(-c3c(-c4ccc(C#N)cc4)nc(N4CCC(N(C)C)CC4)n4ccnc34)ccc2n1C [Example 63, 4-[5-[4-(dimethylamino)piperidin-1-yl]-8-(1,2-dimethyl-1H-benzimidazol-5-yl)imidazo[1,2-c]pyrimidin-7-yl]benzonitrile] | ≤ 50
8 | CN1CCC[C@@H](COc2nc(-c3ccc(C#N)cc3)c(-c3ccc4c(c3)nc(C(F)F)n4C)c3nccn23)C1 [Example 64, 4-(8-[2-(difluoromethyl)-1-methyl-1H-benzimidazol-5-yl]-5-{[(3R)-1-methylpiperidin-3-yl]methoxy}imidazo[1,2-c]pyrimidin-7-yl)benzonitrile] | ≤ 50
9 | Cc1nc2cc(-c3c(-c4ccc(C#N)cc4)nc(OC[C@@H]4CCCN(C)C4)n4ccnc34)ccc2n1C [Example 65, 4-(8-(1,2-dimethyl-1H-benzimidazol-5-yl)-5-{[(3R)-1-methylpiperidin-3-yl]methoxy}imidazo[1,2-c]pyrimidin-7-yl)benzonitrile] | ≤ 50
10 | Cc1ncc(-c2c(-c3ccc(C#N)cc3)nc(N3CCC(N(C)C)CC3)n3ccnc23)cc1C#N [Example 66, 5-{7-(4-cyanophenyl)-5-[4-(dimethylamino)piperidin-1-yl]imidazo[1,2-c]pyrimidin-8-yl}-2-methylnicotinonitrile] | 50 to 500
11 | COC(=O)N(C)c1ccc(-c2c(-c3ccc(C#N)cc3)nc(N3CCC(N(C)C)CC3)n3ccnc23)cn1 [Example 67] | 50 to 500
12 | Cc1cc(-c2c(-c3ccc(C#N)cc3)nc(N3CCC(N(C)C)CC3)n3ccnc23)cnc1C [Example 68, 4-[5-[4-(dimethylamino)piperidin-1-yl]-8-(5,6-dimethylpyridin-3-yl)imidazo[1,2-c]pyrimidin-7-yl]benzonitrile] | ≤ 50
13 | COc1ncc(-c2c(-c3ccc(C#N)cc3)nc(OC[C@@H]3CCCN(C)C3)n3ccnc23)cc1C [Example 69, 4-(8-(6-methoxy-5-methylpyridin-3-yl)-5-{[(3R)-1-methylpiperidin-3-yl]methoxy}imidazo[1,2-c]pyrimidin-7-yl)benzonitrile] | ≤ 50
14 | Cc1ncc(-c2c(-c3ccc(C#N)cc3)nc(OC[C@@H]3CCCN(C)C3)n3ccnc23)cc1C#N [Example 70, 5-(7-(4-cyanophenyl)-5-{[(3R)-1-methylpiperidin-3-yl]methoxy}imidazo[1,2-c]pyrimidin-8-yl)-2-methylnicotinonitrile] | ≤ 50
15 | Cc1ccc(-c2c(-c3ccc(C#N)cc3)nc(OC[C@@H]3CCCN(C)C3)n3ccnc23)cc1CO [Example 71, 4-(8-[3-(hydroxymethyl)-4-methylphenyl]-5-{[(3R)-1-methylpiperidin-3-yl]methoxy}imidazo[1,2-c]pyrimidin-7-yl)benzonitrile] | ≤ 50
16 | Cc1ccc(-c2c(-c3ccc(C#N)cc3)nc(OC[C@@H]3CCCN(C)C3)n3ccnc23)c(CO)c1 [Example 72, 4-(8-[2-(hydroxymethyl)-4-methylphenyl]-5-{[(3R)-1-methylpiperidin-3-yl]methoxy}imidazo[1,2-c]pyrimidin-7-yl)benzonitrile] | ≤ 50
17 | Cc1ccc(-c2c(-c3ccc(C#N)cc3)nc(OC[C@@H]3CCCN(C)C3)n3ccnc23)cn1 [Example 73, 4-[5-{[(3R)-1-methylpiperidin-3-yl]methoxy}-8-(6-methylpyridin-3-yl)imidazo[1,2-c]pyrimidin-7-yl]benzonitrile] | 50 to 500
18 | Cc1ncc(-c2c(-c3ccc(C#N)cc3)nc(OC[C@@H]3CCCN(C)C3)n3ccnc23)cc1F [Example 74, 4-(8-(5-fluoro-6-methylpyridin-3-yl)-5-{[(3R)-1-methylpiperidin-3-yl]methoxy}imidazo[1,2-c]pyrimidin-7-yl)benzonitrile] | 50 to 500
19 | COC(=O)N(C)c1ccc(-c2c(-c3ccc(C#N)cc3)nc(OC[C@@H]3CCCN(C)C3)n3ccnc23)cc1F [Example 75] | 50 to 500
20 | CN1CCC[C@@H](COc2nc(-c3ccc(C#N)cc3)c(-c3ccc4c(c3)OC(C(=O)N(C)C)CO4)c3nccn23)C1 (stereo partly drawn) [Example 76, 7-(7-(4-cyanophcnyl)-5-{[(3R)-1-methylpiperidin-3-yl]methoxy}imidazo[1,2-c]pyrimidin-8-yl)-N,N-dimethyl-2,3-dihydro-1,4-benzodioxine-2-carboxamide] | ≤ 50
21 | CN1CCC[C@@H](COc2nc(-c3ccc(C#N)cc3)c(-c3cnc4c(c3)CCN4C)c3nccn23)C1 [Example 77, 4-(8-(1-mcthyl-2.3-dihydro-1H-pyrrolo[2,3-b]pyridin-5-yl)-5-{[(3R)-1-methylpiperidin-3-yl]methoxy}imidazo[1,2-c]pyrimidin-7-yl)benzonitrile] | ≤ 50
22 | CN1CCC[C@@H](COc2nc(-c3ccc(C#N)cc3)c(-c3cnc4c(c3)CCCN4C)c3nccn23)C1 [Example 78, 4-[5-{[(3R)-1-methylpiperidin-3-yl]methoxy}-8-(8-methyl-5,6,7,8-tetrahydro-1,8-naphthyridin-3-yl)imidazo[1,2-c]pyrimidin-7-yl]benzonitrile] | ≤ 50
23 | CN1CCC[C@@H](COc2nc(-c3ccc(C#N)cc3)c(-c3ccc4c(c3)N(C)C(=O)CC4)c3nccn23)C1 [Example 79, 4-(8-(1-methyl-2-oxo-1,2,3,4-tetrahydroquinolin-7-yl)-5-{[(3R)-1-methylpiperidin-3-yl]methoxy}imidazo[1,2-c]pyrimidin-7-yl)benzonitrile] | 50 to 500
24 | CN1CCC[C@@H](COc2nc(-c3ccc(C#N)cc3)c(-c3ccc(CN4CCOCC4)c(F)c3)c3nccn23)C1 [Example 80, 4-(8-[3-fluoro-4-(morpholin-4-ylmethyl)phenyl]-5-{[(3R)-1-methylpiperidin-3-yl]methoxy}imidazo[1,2-c]pyrimidin-7-yl)benzonitrile] | ≤ 50
25 | COc1ncc(-c2c(-c3ccc(C#N)cc3)nc(OC[C@@H]3CCCN(CCC#N)C3)n3ccnc23)cc1F [Example 81, 4-[5-{[(3R)-1-(2-cyanoethyl)piperidin-3-yl]methoxy}-8-(5-fluoro-6-methoxypyridin-3-yl)imidazo[1,2-c]pyrimidin-7-yl]benzonitrile] | 50 to 500
26 | CN(C)c1ncc(-c2c(-c3ccc(C#N)cc3)nc(N3CCC(N(C)C)CC3)n3ccnc23)cc1F [Example 82, 4-{8-[6-(dimethylamino)-5-fluoropyridin-3-yl]-5-[4-(dimethylamino)piperidin-1-yl]imidazo[1,2-c]pyrimidin-7-yl}benzonitrile] | ≤ 50
27 | Cn1c(=O)oc2cc(-c3c(-c4ccc(C#N)cc4)nc(OC[C@@H]4CCCN(CCC#N)C4)n4ccnc34)ccc21 [Example 83, 4-[5-{[(3R)-1-(2-cyanoethyl)piperidin-3-yl]methoxy}-8-(3-methyl-2-oxo-2,3-dihydro-1,3-benzoxazol-6-yl)imidazo[1,2-c]pyrimidin-7-yl]benzonitrile] | ≤ 50
28 | CN1CCC[C@@H](COc2nc(-c3ccc(C#N)cc3)c(-c3ccc(CN(C)S(C)(=O)=O)c(F)c3)c3nccn23)C1 [Example 84, N-[4-(7-(4-cyanophenyl)-5-{[(3R)-1-methylpiperidin-3-yl]methoxy}imidazo[1,2-c]pyrimidin-8-yl)-2-fluorobenzyl]-N-methylmethanesulfonamide] | 50 to 500
29 | CN1CCC[C@@H](COc2nc(-c3ccc(C#N)cc3)c(-c3ccc(CN(C)C(=O)N(C)C)c(F)c3)c3nccn23)C1 [Example 85, N-[4-(7-(4-cyanophenyl)-5-{[(3R)-1-methylpiperidin-3-yl]methoxy}imidazo[1,2-c]pyrimidin-8-yl)-2-fluorobenzyl]-N,N′,N′-trimethylurea] | ≤ 50

— patent US9944647B2 (Incyte Corporation, priority 2015, dated 2018)
